One may read the IC50 as the concentration at which inhibition is half-maximal.

Structures are written as SMILES.

The text below walks through data of ChEMBL document CHEMBL1153054, “Functionalized 3-amino-imidazo[1,2-a]pyridines: a novel class of drug-like Mycobacterium tuberculosis glutamine synthetase inhibitors” (Bioorg Med Chem Lett, 2009).

The first assay in a line: Inhibition of Mycobacterium tuberculosis glutamine synthetase.
Details: not given
For `Oc1ccc(-c2nc3ccc(Br)cn3c2NC2CCCC2)cc1`, the IC50 result is reported as “ND(Insoluble)”.

The assay is the same for the next values; noted with them: read-out: IC50.
Consider `Oc1ccccc1-c1nc2ccc(Br)cn2c1NC1CCCC1`, for which the IC50 was over 50 µM.
Take `O=C(O)c1cccc(-c2nc3ccc(Br)cn3c2NC2CCCC2)c1`: the concentration for half-maximal inhibition (IC50) is 0.38 µM.
Regarding `COc1ccc(-c2nc3ccc(C(F)(F)F)cn3c2NC2CCCC2)cc1O`, the IC50 was over 50 µM.
For the molecule `COc1ccc(-c2nc3ccc(Oc4ccccc4)cn3c2NC2CCCC2)cc1O`, the IC50 was over 50 µM.
On to `Brc1ccc2ncc(NC3CCCC3)n2c1`, for which the half-maximal inhibitory concentration (IC50) is over 50 µM.
Regarding `COc1cccc(-c2nc3ccc(Br)cn3c2NC2CCCC2)c1OC`, the 50% inhibitory concentration (IC50) was over 50 µM.
On to `O=[N+]([O-])c1ccc(-c2nc3ccc(Br)cn3c2NC2CCCC2)cc1O`, for which the IC50 was over 50 µM.
With `COc1ccc(-c2nc3ccc(Cl)cn3c2NC2CCCC2)cc1O`, the IC50 turned out to be 11.2 µM.
As to `COc1ccc(-c2nc3ccc(C)cn3c2NC2CCCC2)cc1O`, the 50% inhibitory concentration (IC50) is over 50 µM.
As for `OCc1cccc(-c2nc3ccc(Br)cn3c2NC2CCCC2)c1`, the IC50 worked out at 13.2 µM.
Still for that read-out and setting: then `COc1ccc(-c2nc3ccc(F)cn3c2NC2CCCC2)cc1O`, with over 50 µM.
Regarding `COc1ccc(-c2nc3c(C)cc(Br)cn3c2NC2CCCC2)cc1O`, the half-inhibitory concentration (IC50) is 12.7 µM.
On to `COc1ccc(-c2nc3ccc(Cc4ccccc4)cn3c2NC2CCCC2)cc1O`, for which the concentration for half-maximal inhibition (IC50) is over 50 µM.
Still for that read-out and setting: in the case of `COc1ccc(-c2nc3ccc(/C=C/c4ccccc4)cn3c2NC2CCCC2)cc1O` it was over 50 µM.
On to `Oc1cccc(-c2nc3ccc(Br)cn3c2NC2CCCC2)c1Cl`, for which the IC50 is over 50 µM.
For the molecule `Oc1cccc(-c2nc3ccc(Br)cn3c2NC2CCCC2)c1`, the IC50 was over 50 µM.
Still for that read-out and setting: in the case of `COc1ccc(-c2nc3ccc(CCc4ccccc4)cn3c2NC2CCCC2)cc1O` it was over 50 µM; in that of `O=[N+]([O-])c1cccc(-c2nc3ccc(Br)cn3c2NC2CCCC2)c1`, over 50 µM.
With `COc1ccc(-c2nc3ccc(-c4ccncc4)cn3c2NC2CCCC2)cc1O`, the concentration for half-maximal inhibition (IC50) was over 50 µM.
The same measure, in the same setting: then `COc1ccc(-c2nc3c(Br)cccn3c2NC2CCCC2)cc1O`, with 21.3 µM; and `COc1ccc(-c2nc3c(Br)cc(Br)cn3c2NC2CCCC2)cc1O`, with over 50 µM.
As to `COc1ccc(-c2nc3ccc(Br)cn3c2NC2CCCC2)cc1O`, the half-maximal inhibitory concentration (IC50) was 8.8 µM.
For the molecule `Nc1cccc(-c2nc3ccc(Br)cn3c2NC2CCCC2)c1`, the half-inhibitory concentration (IC50) is 10.1 µM.
Regarding `COc1ccc2nc(-c3ccc(OC)c(O)c3)c(NC3CCCC3)n2c1`, the concentration for half-maximal inhibition (IC50) stood at 31.3 µM.
Regarding `COc1ccc(-c2nc3ccccn3c2NC2CCCC2)cc1O`, the IC50 was over 50 µM.
Turning to `Brc1ccc2nc(-c3ccccc3)c(NC3CCCC3)n2c1`, the IC50 is over 50 µM.
In the case of `COc1ccc(-c2nc3ccc(I)cn3c2NC2CCCC2)cc1O`, the IC50 came out at 4.8 µM.
`COc1cccc(-c2nc3ccc(Br)cn3c2NC2CCCC2)c1`: the IC50 was over 50 µM.
On the same count and under the same terms, in the case of `COc1cc(-c2nc3ccc(Br)cn3c2NC2CCCC2)ccc1O` it was over 50 µM.
Regarding `COc1ccc(-c2nc3ccc(-c4ccccc4)cn3c2NC2CCCC2)cc1O`, the concentration for half-maximal inhibition (IC50) was over 50 µM.
Regarding `COc1ccc(-c2nc3ccc(C#N)cn3c2NC2CCCC2)cc1O`, the IC50 is over 50 µM.
Consider `COc1ccc(-c2nc3cccc(Br)n3c2NC2CCCC2)cc1O`, for which the IC50 is over 50 µM.
